Columns and labels:
[1] = test system: human neonatal keratinocytes; experiment: Melanosome Uptake Assay; assay type: cell-based
Description: Carboxyfluorescein diacetate (“CFDA”) (available from Sigma, St. Louis, Mo.) labeled melanosomes were prepared by incubating CFDA dye in SKMEL-188 culture cells (available from Sloan Kettering Institute) for 2 days at 37° C. in a THERMO SCIENTIFIC FORMA brand CO2 incubator (available from Fisher Scientific, Waltham, Mass.). On day 3 of the test, melansomes were isolated from SKMEL-188 cells by step density centrifugation with sucrose solutions layered with different densities, which is well known in the art. Melanosomes were taken from the 1.6 M-2.0 M sucrose layers. The isolated melanosomes were placed in each well of a 6-well plate along with human neonatal keratinocytes (available from Thermo) (approximately 50,000 keratinocytes/well). 2 ml of the appropriate medium (i.e., the test composition, the positive control or the vehicle control) was added to each of the wells to produce […] (i.e., 3 replicates of each of three composition tested). The test composition was made by adding nicotinamide riboside chloride powder (available from Chromadex, Irvine, Calif.) to EPILIFE brand keratinocyte medium to produce a solution of 0.0025 w/v % nicotinamide riboside. The positive control was made by adding niacinamide to EPILIFE brand keratinocyte medium to produce a solution of 0.0025 w/v % niacinamide. Unmodified keratinocyte medium was used as a vehicle control. The resulting test plates were incubated for two days in EPILIFE brand keratinocyte medium. On day 6 of the test, the keratinocytes were detached from the plates using trypsin and fluorescent-label counted by flow cytometry using an LSRFortessa brand flow cytometer (available from Becton Dickinson, NJ). The percentage of cells that had fluorescence (from CFDA label) was used as a metric to measure incorporation of melanosome uptake. Keratinocytes containing detectable levels of CFDA were counted as a fraction of all keratinocytes passing through the flow cytometer (indicated as % uptake in Table 2). The higher the percentage, the higher level of melanosome uptake into the keratinocytes.

[2] = test system: HMGB1 released from keratinocytes exposed to UVB; experiment: In Vitro UV Stress Test (HMGB1 ELISA); assay type: cell-based, human; conditions: for amount of HMGB1 released compared to untreated UVB exposed cells: UVB exposed keratinocytes, 0.001 w/v %
Description: Human neonatal keratinocytes (available from Thermo) were placed in each well of 4 12-well plates. Each well also contained 2 ml of EPILIFE brand keratinocyte medium. The plates were incubated at 37° C. in a CO2 incubator until cell confluency reached 70%. At this point, the cells, except for the negative control, were exposed to 15 mJ/cm^2 UVB (i.e., UV radiation with a wavelength of from 315-280 nm) in a BIO-SUN brand UV irradiating system (available from Vilber Lourmat, France). After UVB exposure, the keratinocyte medium in each well was replaced with an appropriate medium (i.e., niacinamide medium, nicotinamide riboside medium or a control medium) to produce the test plates. The test plates were incubated for 24 hours at 37° C. in a CO2 incubator, after which the medium in each cell was removed and the HMGB1 level measured using a conventional HMGB1 ELISA kit (REF #ST51011, available from IBL International, Canada) according to the manufacturer's instructions. The test media were made by adding either niacinamide or nicotinamide riboside to EPILIFE brand keratinocyte medium to produce a 0.001 w/v % solution. The control medium was unmodified keratinocyte medium.

[3] = test system: pigmented spots in facial skin; experiment: Oral nicotinamide riboside, appearance of pigmented spots after cessation of the treatment period; assay type: in vivo; conditions: oral composition
Text: In some instances, the method herein includes identifying a target portion of facial skin in need of treatment and orally ingesting a safe and effective amount of nicotinamide riboside over the course of a multi-day, or multi-week, or multi-month, or multi-year treatment period. Nicotinamide riboside may be incorporated into a suitable oral composition. The target portion of facial skin is any portion of facial skin (e.g., periorbital, cheek, chin, perioral, nose, forehead, etc.) where improvement in the appearance of skin is desired (e.g., reduction in size and/or increase in lightness of hyperpigmented spot). […] In this way, the present compositions may be used as a preventative measure for skin pigmentation disorders. The oral composition may be ingested one time per day, two times per day, three times per day (e.g., around each meal), four times per day or more during the treatment period. The daily dosage of nicotinamide riboside may be greater than 100 mg, preferably greater than 250 mg, more preferably greater than 300 mg, most preferably greater than 400 mg or 500 mg. The weekly dosage may be greater than 2100 mg/week, 2800 mg/week, or 3500 mg/week. The daily dosage may be provided in a single unit dosage form (e.g., a single pill, capsule or tablet) or may be provided in smaller unit dosage forms if the oral composition is intended to be taken more than once per day. […]

Compound | rate of melanosome uptake compared to the vehicle control ([1]; 0.0025 w/v %) | amount of HMGB1 released compared to untreated UVB exposed cells [2] | % Uptake ([1]; 0.0025 w/v % in keratinocyte medium, fraction of keratinocytes with detectable CFDA-labeled melanosomes, flow cytometry) [%] | Rate of Melanosome Uptake Versus Control ([1]; 0.0025 w/v %, vehicle control = 100%) [%] | time after cessation of the treatment period to regression to baseline in the appearance of the pigmented spots [3] [weeks] | HMGB1 Released ([2]; UV exposure 15 mJ/cm^2 UVB, 0.001% in medium, 24 hours) [pg/mL]
NC(=O)c1cccnc1 [Niacinamide, niacinamide, reference compound] | inhibit the rate of melanosome uptake | no significant effect |  |  |  | 
Nicotinamide riboside | increase the rate of melanosome uptake | released less HMGB1 | 67 | 186 | ≤ 2 | 
NC(=O)c1ccc[n+]([C@@H]2O[C@H](CO)[C@@H](O)[C@H]2O)c1.[Cl-] [Nicotinamide Riboside Chloride, nicotinamide riboside chloride] |  |  |  |  |  | 11.5

— patent US20160374908A1, “SKIN CARE COMPOSITION AND METHODS OF USING THE SAME” (The Procter & Gamble Company, priority 2015, published 2016)
